# Source: article PMC12203525, “The insight into the biology of five homologous lectins produced by the entomopathogenic bacterium and nematode symbiont Photorhabdus laumondii” (Glycobiology, 2025)
# Read-outs that look alike come from different tables or passages of the source.
# Tests used:
# PLL4 [1] = biological target: T1, PLL4 (Photorhabdus laumondii subsp. laumondii, UniProt Q7N8I6); test: Glycan microarray screening (634 saccharide ligands); assay type: binding, Photorhabdus laumondii subsp. laumondii TT01; conditions: DyLight488-labelled PLL4, 200 μg/mL
# T1 sequence (Q7N8I6 entry or part of it): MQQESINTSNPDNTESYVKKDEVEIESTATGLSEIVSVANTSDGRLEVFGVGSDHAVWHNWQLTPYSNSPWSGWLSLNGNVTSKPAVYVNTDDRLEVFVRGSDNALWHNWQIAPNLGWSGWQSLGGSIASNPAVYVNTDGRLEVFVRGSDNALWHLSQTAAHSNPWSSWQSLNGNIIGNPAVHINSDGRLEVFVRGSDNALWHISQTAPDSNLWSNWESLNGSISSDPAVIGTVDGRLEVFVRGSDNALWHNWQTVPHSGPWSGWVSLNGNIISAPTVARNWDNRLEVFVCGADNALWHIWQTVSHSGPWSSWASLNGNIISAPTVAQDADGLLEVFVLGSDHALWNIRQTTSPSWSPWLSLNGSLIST
# Experimental: Lectins were fluorescently labelled with DyLight 488 according to the manufacturer’s instructions and the unbound dye was extensively dialyzed out of the protein solution. The microarray chip (Semiotik LLC, Moscow, Russia, batch OSPS280715) containing 634 saccharide ligands, each in 6 replicates, was treated with PBS (137 mM NaCl, 2.7 mM KCl, 8 mM Na2HPO4, […], pH 7.4) with added 0.1% Tween-20 for 15 min. The labelled proteins (200 μg/mL) were then separately applied to the chip surface and incubated in a humidity chamber at 37 °C for 1 h. After the incubation, the unbound protein was washed out with PBS containing 0.05% Tween-20 and deionized water. The chip was dried by airflow and scanned using an InnoScan1100 AL (Innopsys, Carbonne, France) with a 488 nm laser. The data were analyzed with the software Mapix 8.2.2 and an online glycan chip converter (Semiotic, https://rakitko.shinyapps.io/semiotik).
# PLL [2] = biological target: T2, PLL (Photorhabdus laumondii subsp. laumondii, UniProt Q7N8J0); test: SPR inhibition assay on the MGMR channel; design: species or system Photorhabdus laumondii subsp. laumondii TT01; conditions: inhibition of PLL (250 nM) binding to immobilized MGMR
# T2 sequence (Q7N8J0 entry or part of it): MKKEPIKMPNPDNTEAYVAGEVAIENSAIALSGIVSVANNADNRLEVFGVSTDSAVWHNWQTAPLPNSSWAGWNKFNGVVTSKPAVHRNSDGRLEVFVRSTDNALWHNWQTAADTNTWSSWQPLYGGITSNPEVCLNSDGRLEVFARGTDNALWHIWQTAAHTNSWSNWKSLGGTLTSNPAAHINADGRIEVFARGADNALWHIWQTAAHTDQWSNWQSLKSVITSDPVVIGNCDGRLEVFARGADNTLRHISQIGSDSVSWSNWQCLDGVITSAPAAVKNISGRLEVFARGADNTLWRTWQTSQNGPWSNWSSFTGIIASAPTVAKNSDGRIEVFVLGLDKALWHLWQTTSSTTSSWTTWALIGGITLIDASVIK
# Experimental: (§1) SPR experiments were carried out on BIAcore T200 or BIAcore S200 instruments (GE Healthcare, UK). Sugar moieties were immobilized on the chip surface using the standard procedures according to the manufacturer’s instructions. Measurements with immobilized MGMR were performed on the chip prepared previously (high-density chip) ([Fujdiarová et al. 2021]). Measurements with immobilized α-L-fucose were performed on the streptavidin chip (GE Healthcare, UK). Biotinylated α-L-fucose was immobilized on channel 2 to yield a final response of 29 RU, unmodified channel 1 was used as a control.
# (§2) Measurements were performed in Tris buffer with the addition of 0.05% Tween 20 at a flow rate of 30 μl/min at 25 °C. […] 50 mM NaOH for 30 s (flow 30 μl/min) was used for chip regeneration. To determine KDs (app) towards MGMR, 2-fold dilution series of lectins was used (PLL: 0.048 – 50 μM, PLL4: 0.008 - 2 μM; PLL5: 1.9 – 500 nM). The data were evaluated with the BIAcore T200 or BIAcore S200 evaluation software using a steady state approach. To determine KD(app) towards α-L-fucose, 2-fold dilution series of lectins was used (PLL: 1.25 – 20 μM, PLL4: 0.39 – 12.5 μM; PLL5: 0.12 – 30 μM). The data were evaluated with the BIAcore T200 or BIAcore S200 evaluation software using a steady state approach (PLL5) or a single-cycle kinetics approach (PLL, PLL4). For SPR inhibition experiments on the MGMR channel, 250 nM PLL, 250 nM PLL4 or 62 nM PLL5, respectively, was used. Proteins of the given concentration were mixed with a concentration series of tested inhibitors (0.01 - 0.4 M). Proteins without an inhibitor were used as a control. The response of the lectin bound to the sugar surface at equilibrium was plotted against the concentration of inhibitor in order to determine IC50. The response in the appropriate blank channel was subtracted prior to all evaluations.
# PLL4 [3] = biological target: T1, PLL4; test: SPR inhibition assay on the MGMR channel; design: species or system Photorhabdus laumondii subsp. laumondii TT01; conditions: inhibition of PLL4 (250 nM) binding to immobilized MGMR
# Experimental: as §1, §2
# PLL5 [4] = biological target: T3, PLL5 (Photorhabdus laumondii subsp. laumondii, UniProt Q7N8I5); test: SPR inhibition assay on the MGMR channel; design: species or system Photorhabdus laumondii subsp. laumondii TT01; conditions: inhibition of PLL5 (62 nM) binding to immobilized MGMR
# T3 sequence (Q7N8I5 entry or part of it): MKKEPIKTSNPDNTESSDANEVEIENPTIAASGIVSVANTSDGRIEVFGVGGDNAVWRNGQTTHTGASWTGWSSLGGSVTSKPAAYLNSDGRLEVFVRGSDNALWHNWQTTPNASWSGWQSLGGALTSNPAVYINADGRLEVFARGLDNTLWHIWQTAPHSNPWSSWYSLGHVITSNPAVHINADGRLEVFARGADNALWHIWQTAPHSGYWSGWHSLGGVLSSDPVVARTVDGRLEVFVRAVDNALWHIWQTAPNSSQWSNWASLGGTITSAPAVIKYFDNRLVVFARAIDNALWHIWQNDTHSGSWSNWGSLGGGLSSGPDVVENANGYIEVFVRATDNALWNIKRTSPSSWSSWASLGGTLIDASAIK
# Experimental: as §1, §2
# PLL [5] = biological target: T2, PLL; test: Isothermal titration calorimetry (ITC); assay type: binding, Photorhabdus laumondii subsp. laumondii TT01; conditions: for KD: ITC
# Experimental: (§3) ITC experiments were performed using an Auto-ITC200 calorimeter or Automated PEAQ-ITC calorimeter (both Malvern Panalytical, Malvern, UK). Measurements were carried out at 25 °C in the Tris buffer. Before the analyses, lectins were extensively dialyzed against the Tris buffer and the dialysate was used to dissolve ligands. The protein (0.1 mM or 0.2 mM) in the cell was titrated with 2 μL injections of the ligand (20 mM or 40 mM). […] Experiments for each interacting ligand were carried out in triplicates. Integrated heat effects were evaluated by nonlinear regression using a single-site binding model in Origin 7 (OriginLab, Northampton, USA) ([Wiseman et al. 1989]). Triplicate measurements were fitted simultaneously using a global fit approach. Due to the low affinity of the interaction, the binding stoichiometry was fixed during the fitting.
# PLL4 [6] = biological target: T1, PLL4; test: Isothermal titration calorimetry (ITC); assay type: binding, Photorhabdus laumondii subsp. laumondii TT01; conditions: for KD: ITC
# Experimental: as §3
# PLL5 [7] = biological target: T3, PLL5; test: Isothermal titration calorimetry (ITC); assay type: binding, Photorhabdus laumondii subsp. laumondii TT01; conditions: for KD: ITC
# Experimental: as §3
# PLL2 [8] = test system: PLL2; design: method as in Faltinek et al. 2019; Fujdiarová et al. 2021; conditions: inhibition of PLL2 binding to immobilized MGMR; ref Faltinek et al. 2019; Fujdiarová et al. 2021; read-out: IC50; cited from earlier work
# PLL3 [9] = test system: PLL3; design: method as in Faltinek et al. 2019; Fujdiarová et al. 2021; conditions: inhibition of PLL3 binding to immobilized MGMR; ref Faltinek et al. 2019; Fujdiarová et al. 2021; read-out: IC50; cited from earlier work
# PLL2 [10] = biological target: PLL2; design: method as in Fujdiarová et al, 2021, Faltinek et al, 2019; conditions: ref Fujdiarová et al, 2021, Faltinek et al, 2019, cited from earlier work
# PLL3 [11] = biological target: PLL3; design: method as in Fujdiarová et al, 2021, Faltinek et al, 2019; conditions: ref Fujdiarová et al, 2021, Faltinek et al, 2019, cited from earlier work; for Kd: ITC
smiles,measurement,setting,value
OC[C@H]1O[C@@H](O[C@H]2[C@H](O)[C@@H](O)C(O)O[C@@H]2CO)[C@H](O)[C@@H](O)[C@H]1O (mixture of isomers) [lactose],glycan array binding (in words),PLL4 [1],recognized
"CO[C@@H]([C@H](O)[C@H](O)CO)[C@@H](O)C=O [3OMG, 3-O-methyl-D-glucose]",IC50,PLL [2],48.1 ± 14.9 mM
same,IC50,PLL4 [3],13.1 ± 0.84 mM
same,IC50,PLL5 [4],16.9 ± 2.69 mM
same,interaction with the sugar in ITC (in words),PLL [5],did not bind these sugars significantly
same,KD,PLL [5]; stoichiometry N fixed to 2,No int
same,KD,PLL [5]; stoichiometry N fixed to 4,No int
same,KD,PLL [5]; stoichiometry N fixed to 6,No int
same,KD,PLL [5]; stoichiometry N fixed to 8,No int
same,KD,"PLL4 [6]; PLL4, stoichiometry N fixed to 2",No int
same,KD,"PLL4 [6]; PLL4, stoichiometry N fixed to 4",No int
same,KD,"PLL4 [6]; PLL4, stoichiometry N fixed to 6",No int
same,KD,"PLL4 [6]; PLL4, stoichiometry N fixed to 8",No int
same,interaction with the sugar in ITC (in words),PLL4 [6]; PLL4,did not bind these sugars significantly
same,KD,"PLL5 [7]; PLL5, stoichiometry N fixed to 2",No int
same,KD,"PLL5 [7]; PLL5, stoichiometry N fixed to 4",No int
same,KD,"PLL5 [7]; PLL5, stoichiometry N fixed to 6",No int
same,KD,"PLL5 [7]; PLL5, stoichiometry N fixed to 8",No int
same,interaction with the sugar in ITC (in words),PLL5 [7]; PLL5,did not bind these sugars significantly
same,IC50,PLL2 [8],5.2 ± 0.91 mM
same,IC50,PLL3 [9],26.4 ± 2.84 mM
same,Kd,"PLL2 [10]; ITC, PLL2, stoichiometry N fixed to 8",11.2 ± 0.8 mM
same,interaction with the sugar in ITC (in words),PLL2 [10]; PLL2,interacted
same,Kd,"PLL3 [11]; PLL3, stoichiometry N fixed to 2",11.5 ± 1.55 mM
same,Kd,"PLL3 [11]; PLL3, stoichiometry N fixed to 4",11.1 ± 1.5 mM
same,Kd,"PLL3 [11]; PLL3, stoichiometry N fixed to 6",10.7 ± 1.5 mM
same,Kd,"PLL3 [11]; PLL3, stoichiometry N fixed to 8",10.2 ± 0.62 mM
same,interaction with the sugar in ITC (in words),PLL3 [11]; PLL3,interacted
CC(=O)N[C@@H]1[C@@H](O)[C@H](O[C@@H]2O[C@H](CO)[C@H](O)[C@H](O)[C@H]2O[C@@H]2O[C@H](C)[C@H](O)[C@H](O)[C@H]2O)[C@@H](CO)O[C@H]1O [D-Fucβ1-2-D-Galβ1-4-D-GlcNAcβ],glycan array binding (in words),PLL4 [1],recognized
